According to patent publication US12030897B2, “Pyrrolo[2,1-f][1,2,4]triazine derivatives serving as selective HER2 inhibitors and application thereof” (MEDSHINE DISCOVERY INC., priority 2018, dated 2024):
Values joined by “and” are separate entries in the source; they are usually repeats but may differ in a detail not shown here. Equal entries are not always repeated.

Tests used:
HER2 (ErbB2) = HER2 (ErbB2) (Homo sapiens (Human), UniProt P04626); assay: In vitro enzyme activity, HER2 (ErbB2), [γ-33P]ATP filter assay; format: biochemical
HER2 (ErbB2), sequence (P04626 23-1255): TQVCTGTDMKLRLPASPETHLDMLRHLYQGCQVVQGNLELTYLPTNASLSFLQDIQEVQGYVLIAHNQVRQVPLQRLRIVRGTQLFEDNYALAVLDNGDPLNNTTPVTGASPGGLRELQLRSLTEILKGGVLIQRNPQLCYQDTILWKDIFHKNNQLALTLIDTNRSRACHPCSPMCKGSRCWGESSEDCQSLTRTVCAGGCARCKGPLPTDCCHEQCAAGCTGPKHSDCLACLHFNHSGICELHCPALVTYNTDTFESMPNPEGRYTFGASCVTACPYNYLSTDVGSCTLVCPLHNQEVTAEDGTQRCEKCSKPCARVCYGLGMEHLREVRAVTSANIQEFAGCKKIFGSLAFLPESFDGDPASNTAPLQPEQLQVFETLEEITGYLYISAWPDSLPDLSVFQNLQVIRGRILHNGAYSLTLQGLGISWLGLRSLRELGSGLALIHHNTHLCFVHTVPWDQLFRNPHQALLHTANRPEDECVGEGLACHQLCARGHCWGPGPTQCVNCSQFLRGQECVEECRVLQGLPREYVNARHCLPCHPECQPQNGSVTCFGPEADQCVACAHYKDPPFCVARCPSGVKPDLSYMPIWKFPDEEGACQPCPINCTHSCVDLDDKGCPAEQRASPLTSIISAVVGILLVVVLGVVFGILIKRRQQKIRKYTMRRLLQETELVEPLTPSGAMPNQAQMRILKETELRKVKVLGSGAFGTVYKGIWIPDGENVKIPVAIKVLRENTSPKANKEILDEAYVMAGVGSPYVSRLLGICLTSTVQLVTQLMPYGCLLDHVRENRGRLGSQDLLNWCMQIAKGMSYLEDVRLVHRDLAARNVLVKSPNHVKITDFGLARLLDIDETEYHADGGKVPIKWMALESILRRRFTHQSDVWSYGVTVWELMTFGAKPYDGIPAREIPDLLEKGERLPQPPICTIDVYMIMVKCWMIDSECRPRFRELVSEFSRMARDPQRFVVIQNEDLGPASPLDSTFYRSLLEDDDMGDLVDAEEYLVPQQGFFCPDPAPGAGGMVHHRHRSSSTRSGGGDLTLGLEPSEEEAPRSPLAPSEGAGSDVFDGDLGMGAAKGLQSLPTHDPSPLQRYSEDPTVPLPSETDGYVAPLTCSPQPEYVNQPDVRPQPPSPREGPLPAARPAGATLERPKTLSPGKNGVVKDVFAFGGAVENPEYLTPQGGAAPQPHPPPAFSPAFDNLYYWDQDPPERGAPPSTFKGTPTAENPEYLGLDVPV
Description: (§1) The object of this test is to detect the in vitro inhibitory activity of the compound against HER1 (ErbB1), HER2 (ErbB2) and HER4 (ErbB4). The enzymes used in this test were human ErbB1, ErbB2 and ErbB4. Eurofins Pharma Discovery Service provided the activity detection method, and the results of the inhibitory activity of the tested compound against HER1, HER2 and HER4 were shown in Table 1.
(§2) Experimental Steps and Methods (96-Well Plate):
(§3) 5-fold diluted tested compound buffer (5 μL), peptide substrate poly(Glu, Tyr) (4:1) (2.5 μL), ErbB (4-20 ng, 2.5 μL), MnCl2 (50 mM, 1.25 μL), dH2O (3.75 μL) and [γ-^33P]ATP (10 μL) were added, and incubated at 30° C. for 10 min. 3% phosphoric acid was added to terminate the reaction, and 10 μL of the specimen was transferred to Filtermate A. The filter was washed with 75 mM phosphoric acid for three times and methanol once, and transferred to a sealed plastic bag, and a scintillation fluid mixture (4 mL) was added, The intensity of the emitted photons was detected on the scintillation luminescence counter. The photon intensity of the enzyme sample was compared with the photon intensity of the internal control sample, and the level of photon intensity reflected the strength of the tyrosine kinase activity.

HER4 (ErbB4) = HER4 (ErbB4) (Homo sapiens (Human), UniProt Q15303); assay: In vitro enzyme activity, HER4 (ErbB4), [γ-33P]ATP filter assay; format: biochemical
HER4 (ErbB4), sequence (Q15303 26-1308): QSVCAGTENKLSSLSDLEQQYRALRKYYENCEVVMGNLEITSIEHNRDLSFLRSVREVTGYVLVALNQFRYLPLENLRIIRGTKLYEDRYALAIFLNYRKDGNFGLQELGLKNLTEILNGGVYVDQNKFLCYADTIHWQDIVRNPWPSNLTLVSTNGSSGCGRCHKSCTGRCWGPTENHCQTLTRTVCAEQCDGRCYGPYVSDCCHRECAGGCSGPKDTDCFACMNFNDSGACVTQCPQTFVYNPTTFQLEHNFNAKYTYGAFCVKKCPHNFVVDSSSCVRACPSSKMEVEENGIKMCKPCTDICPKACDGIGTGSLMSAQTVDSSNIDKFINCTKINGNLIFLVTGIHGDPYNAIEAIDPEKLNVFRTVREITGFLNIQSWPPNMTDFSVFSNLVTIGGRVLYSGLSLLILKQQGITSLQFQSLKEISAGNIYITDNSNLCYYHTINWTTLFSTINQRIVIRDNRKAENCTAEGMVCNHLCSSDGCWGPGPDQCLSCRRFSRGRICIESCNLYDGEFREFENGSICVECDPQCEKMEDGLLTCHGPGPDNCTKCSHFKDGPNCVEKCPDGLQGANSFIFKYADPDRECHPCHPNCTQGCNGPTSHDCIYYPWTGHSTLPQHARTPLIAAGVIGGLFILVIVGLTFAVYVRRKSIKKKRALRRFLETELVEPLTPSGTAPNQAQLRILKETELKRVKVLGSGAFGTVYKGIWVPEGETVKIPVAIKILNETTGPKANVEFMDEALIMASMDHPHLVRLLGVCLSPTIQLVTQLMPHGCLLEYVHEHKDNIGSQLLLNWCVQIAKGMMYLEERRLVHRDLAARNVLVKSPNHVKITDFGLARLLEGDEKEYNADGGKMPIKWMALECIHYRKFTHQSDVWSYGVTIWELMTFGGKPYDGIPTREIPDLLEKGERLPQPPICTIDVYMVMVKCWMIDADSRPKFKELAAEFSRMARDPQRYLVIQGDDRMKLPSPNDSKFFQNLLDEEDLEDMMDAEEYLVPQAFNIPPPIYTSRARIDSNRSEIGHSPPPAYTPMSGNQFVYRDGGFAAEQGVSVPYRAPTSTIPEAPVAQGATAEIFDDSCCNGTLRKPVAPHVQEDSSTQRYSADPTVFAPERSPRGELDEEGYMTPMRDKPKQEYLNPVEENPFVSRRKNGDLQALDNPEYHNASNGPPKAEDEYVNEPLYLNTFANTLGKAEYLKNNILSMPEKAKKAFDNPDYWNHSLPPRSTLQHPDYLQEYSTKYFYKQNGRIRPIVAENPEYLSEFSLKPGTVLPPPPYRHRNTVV
Description: as §1, §2, §3

CYP1A2 = CYP1A2 (Homo sapiens (Human), UniProt P05177); format: in vitro ADME; settings: microsomes
CYP1A2, sequence (P05177 whole entry): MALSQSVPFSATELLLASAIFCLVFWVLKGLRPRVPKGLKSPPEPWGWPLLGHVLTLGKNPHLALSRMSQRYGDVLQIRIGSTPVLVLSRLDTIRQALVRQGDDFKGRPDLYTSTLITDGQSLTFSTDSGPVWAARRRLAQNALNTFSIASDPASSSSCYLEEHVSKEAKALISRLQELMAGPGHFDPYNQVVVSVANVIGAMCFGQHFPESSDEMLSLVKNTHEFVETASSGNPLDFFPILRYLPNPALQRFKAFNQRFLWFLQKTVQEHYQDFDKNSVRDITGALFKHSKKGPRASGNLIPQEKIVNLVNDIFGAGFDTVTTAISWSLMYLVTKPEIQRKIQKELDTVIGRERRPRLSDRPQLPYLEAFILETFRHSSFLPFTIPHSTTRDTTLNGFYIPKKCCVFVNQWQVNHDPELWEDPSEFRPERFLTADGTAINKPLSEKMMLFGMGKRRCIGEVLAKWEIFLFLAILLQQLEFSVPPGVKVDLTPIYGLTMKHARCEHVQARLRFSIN
Description: (§4) The object of this study was to evaluate the effect of Example 4 on the activities of five isoenzymes (CYP1A2, CYP2C9, CYP2C19, CYP2D6 and CYP3A4) of human liver microsomal cytochrome P450 (CYP) using an in vitro test system. The specific probe substrates of CYP450 isozymes were incubated with human liver microsomes and different concentrations of Example 4, and reduced nicotinamide adenine dinucleotide phosphate (NADPH) was added to initiate the reaction. After the reaction was completed, the samples were treated, and liquid chromatography tandem mass spectrometry (LC/MS/MS) was used to detect the metabolites produced by specific substrates.

CYP2C9 = CYP2C9 (Homo sapiens (Human), UniProt P11712); assay: Inhibition of human liver microsomal cytochrome P450 isoenzyme CYP2C9; format: in vitro ADME; settings: human liver microsomes
CYP2C9, sequence (P11712 whole entry): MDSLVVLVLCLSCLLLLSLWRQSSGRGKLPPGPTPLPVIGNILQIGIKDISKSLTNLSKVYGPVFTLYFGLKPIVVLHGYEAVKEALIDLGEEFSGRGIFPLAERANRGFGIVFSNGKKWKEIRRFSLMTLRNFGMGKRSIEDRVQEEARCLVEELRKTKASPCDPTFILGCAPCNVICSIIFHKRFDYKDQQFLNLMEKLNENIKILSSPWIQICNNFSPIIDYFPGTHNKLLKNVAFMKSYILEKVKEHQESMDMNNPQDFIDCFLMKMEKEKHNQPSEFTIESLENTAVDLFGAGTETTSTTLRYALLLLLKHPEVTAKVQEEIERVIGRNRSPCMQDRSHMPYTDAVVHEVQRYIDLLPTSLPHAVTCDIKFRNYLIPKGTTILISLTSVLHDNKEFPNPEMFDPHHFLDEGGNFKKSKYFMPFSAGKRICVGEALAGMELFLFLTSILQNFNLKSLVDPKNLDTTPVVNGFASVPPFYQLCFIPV
Description: as §4

CYP2C19 = CYP2C19 (Homo sapiens (Human), UniProt P33261); assay: Inhibition of human liver microsomal cytochrome P450 isoenzyme CYP2C19; format: in vitro ADME; settings: human liver microsomes
CYP2C19, sequence (P33261 whole entry): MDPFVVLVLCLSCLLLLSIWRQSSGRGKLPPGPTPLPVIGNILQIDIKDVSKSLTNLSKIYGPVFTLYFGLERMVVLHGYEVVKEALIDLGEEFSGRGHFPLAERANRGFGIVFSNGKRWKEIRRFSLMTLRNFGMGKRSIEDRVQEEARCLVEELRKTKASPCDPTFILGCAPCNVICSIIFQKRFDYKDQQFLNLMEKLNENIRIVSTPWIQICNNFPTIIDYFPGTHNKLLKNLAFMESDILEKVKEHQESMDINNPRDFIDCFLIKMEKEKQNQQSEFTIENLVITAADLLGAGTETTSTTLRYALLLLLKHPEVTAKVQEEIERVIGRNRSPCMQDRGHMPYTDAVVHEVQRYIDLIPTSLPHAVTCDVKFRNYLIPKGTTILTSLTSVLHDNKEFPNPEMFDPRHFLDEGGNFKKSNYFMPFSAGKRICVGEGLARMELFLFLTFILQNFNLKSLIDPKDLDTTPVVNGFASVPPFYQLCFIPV
Description: as §4

CYP2D6 = CYP2D6 (Homo sapiens (Human), UniProt P10635); assay: Inhibition of human liver microsomal cytochrome P450 isoenzyme CYP2D6; format: in vitro ADME; settings: human liver microsomes
CYP2D6, sequence (P10635 whole entry): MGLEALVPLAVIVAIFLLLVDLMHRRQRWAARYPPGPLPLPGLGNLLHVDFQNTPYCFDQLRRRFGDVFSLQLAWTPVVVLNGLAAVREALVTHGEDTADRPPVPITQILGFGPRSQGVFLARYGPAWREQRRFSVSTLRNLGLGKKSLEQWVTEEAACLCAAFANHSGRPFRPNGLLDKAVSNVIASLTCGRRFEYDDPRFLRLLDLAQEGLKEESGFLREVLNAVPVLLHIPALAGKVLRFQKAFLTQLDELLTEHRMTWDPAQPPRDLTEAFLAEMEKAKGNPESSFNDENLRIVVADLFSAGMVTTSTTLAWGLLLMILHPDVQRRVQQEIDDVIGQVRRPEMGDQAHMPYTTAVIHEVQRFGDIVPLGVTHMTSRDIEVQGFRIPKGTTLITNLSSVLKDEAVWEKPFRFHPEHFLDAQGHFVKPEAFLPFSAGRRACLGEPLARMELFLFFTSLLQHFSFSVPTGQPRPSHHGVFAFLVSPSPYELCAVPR
Description: as §4

CYP3A4 = CYP3A4 (Homo sapiens (Human), UniProt P08684); assay: Inhibition of human liver microsomal cytochrome P450 isoenzyme CYP3A4; format: in vitro ADME; settings: human liver microsomes
CYP3A4, sequence (P08684 whole entry): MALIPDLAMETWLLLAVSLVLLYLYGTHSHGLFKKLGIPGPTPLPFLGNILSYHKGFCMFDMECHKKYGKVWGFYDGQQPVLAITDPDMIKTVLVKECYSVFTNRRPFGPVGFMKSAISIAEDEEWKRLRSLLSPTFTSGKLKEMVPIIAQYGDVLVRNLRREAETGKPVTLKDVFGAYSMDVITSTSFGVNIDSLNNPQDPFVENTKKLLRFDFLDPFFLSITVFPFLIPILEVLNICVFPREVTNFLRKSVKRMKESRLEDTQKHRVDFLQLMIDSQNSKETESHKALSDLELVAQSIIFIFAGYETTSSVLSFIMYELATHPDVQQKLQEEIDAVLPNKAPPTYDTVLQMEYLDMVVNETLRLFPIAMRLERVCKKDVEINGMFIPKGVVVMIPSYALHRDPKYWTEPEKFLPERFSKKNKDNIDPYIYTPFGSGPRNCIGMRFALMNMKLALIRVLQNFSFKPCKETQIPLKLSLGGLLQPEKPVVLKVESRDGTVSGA
Description: as §4

[1] = system: human gastric cancer NCI-N87 cell subcutaneous xenograft tumor; assay: In vivo efficacy, NCI-N87 subcutaneous xenograft tumor model; set-up: species or system BALB/c nude mice; settings: 100 mg/kg
Description: Experiment object: to study the efficacy of the tested compound on human gastric cancer NCI-N87 cell subcutaneous xenograft tumor in the BALB/c nude mouse model.
Experimental animals: female BALB/c nude mice, 6 to 8 weeks old, weight: 18 to 22 grams; Supplier: Shanghai Xipuer-Bikai Laboratory Animal Co., Ltd.
Human gastric cancer NCI-N87 cells were cultured in a monolayer in vitro, and the culture conditions were: RPMI-1640 medium with 10% fetal bovine serum, 100 U/mL penicillin, 100 μg/mL streptomycin and 2 mM glutamine, and 37° C., 5% CO2. Conventional digestion treatment with pancreatin-EDTA for passage was carried out twice a week. When the cell saturation was 80% to 90%, the cells were collected, counted and inoculated.
0.2 mL of (10×10^6) NCI-N87 cells were subcutaneously inoculated into the right back of each nude mouse (PBS:Matrigel=1:1). The grouping and administration were started when the average tumor volume reached 130 mm^3.
The tested compound was prepared as a 10 mg/mL solution, and the solvent was 10% NMP+10% ethylene glycol stearate+80% water.
The experimental index was to investigate whether the tumor growth was inhibited, delayed or cured. Tumor diameter was measured twice a week with a vernier caliper. the calculation formula of tumor volume: V=0.5a×b^2, wherein a and b represented the long and short diameters of the tumor, respectively.
The anti-tumor efficacy of the compound was evaluated by TGI (%) or relative tumor proliferation rate T/C (%). TGI (%) reflected the tumor growth inhibition rate.
relative tumor growth rate T/C (%): calculation formula was as follows: T/C %=TRTV/CRTV (TRTV: RTV of the treatment group; CRTV: RTV of the solvent control group). The relative tumor volume (RTV) was calculated according to the results of the tumor measurement. The calculation equation was RTV=Vt/V0, where V0 was the average tumor volume measured at beginning of the grouping and administration (i.e., d0), and Vt was the average tumor volume at the time of a certain measurement. TRTV and CRTV were obtained from the data on the same day.
Statistical analysis included mean value and standard error (SEM) of the tumor volume of each group at each time point. […] The comparison between two groups was analyzed by T-test, and the comparison between three or more groups was analyzed by one-way ANOVA.

[2] = system: human breast cancer BT-474 cell subcutaneous xenograft tumor; assay: In vivo efficacy, BT-474 subcutaneous xenograft tumor model; set-up: species or system BALB/c nude mice; settings: BT-474 xenograft, 100 mg/kg
Description: Experiment object: to study the in vivo efficacy of the tested compound in human breast cancer BT-474 cell BALB/c nude mouse subcutaneous xenograft tumor model.
Experimental animals: female BALB/c nude mice, 6 to 8 weeks old, weight: 18 to 22 grams; Supplier Beijing Weitonglihua Laboratory Animal Technology Co., Ltd.
Human breast cancer BT474 cells were cultured in a monolayer in vitro. The culture conditions were: ATCC Hybri-Care Medium with 1.5 g/L sodium bicarbonate, 10% fetal bovine serum, 100 U/mL penicillin and 100 μg/mL streptomycin, and 37° C., 5% CO2 incubator. Conventional digestion treatment with pancreatin-EDTA for passage was carried out twice a week. When the cell saturation was 80% to 90%, and the number reached the requirement, the cells were collected, counted and inoculated.
0.2 mL (1×10^7 cells) of BT474 cells (with matrigel in a volume ratio of 1:1) were subcutaneously inoculated on the right back of each mouse. The grouping and administration were started when the average tumor volume reached about 168 mm^3. (Estrogen tablets were inoculated three days before cell inoculation).
7.3 the Preparation of the Tested Samples, Tumor Measurement, Experimental Index and Statistical Analysis were the Same as in Experimental Example 6.

Cc1cc(Nc2ncnn3ccc(CN4CCC(N)CC4)c23)ccc1Oc1ccn2ncnc2c1 [Example 4]
IC50 (HER2 (ErbB2)): 0.012 µM
IC50 (HER4 (ErbB4)): 0.156 µM
IC50 (CYP1A2): > 50 µM
IC50 (CYP2C9): > 50 µM
IC50 (CYP2C19): 36.1 µM
IC50 (CYP2D6): 25.4 µM
IC50 (CYP3A4): 32.4 µM
body weight of the mice in the treatment group [1]: decreased slightly
T/C ([1]; day 21): 2.92%
TGI ([1]; day 21): 112.13%
Tumor volume (Day 21) ([1]; day 21, mean ± SEM): 29 mm^3 and 29 ± 7 mm^3
RTV ([2]; day 20): 0.20 ± 0.02
T/C ([2]; day 20): 2.62%
TGI ([2]; day 20): 112.93%
Tumor volume ([2]; day 20 (head: Day 21), mean ± SEM): 33 mm^3 and 33 ± 3 mm^3
